According to patent US20260250337A1, “HYBRID ANTIMICROBIAL PEPTIDES” (UNIVERSIDADE FEDERAL DO ABC, priority 2023, published 2026):
No end group written: not given here.

Tests used:
[1] = test system: B. megaterium ATCC 10778; experiment: Liquid growth inhibition assay, MIC; type: cell-based, Bacillus megaterium; conditions: 37° C., 18 h
Description: (§1) Initially, the antimicrobial activity was determined by liquid growth inhibition assays, as previously described by Pedron et al.^62. Briefly, Peptone Broth and Potato Dextrose Broth (Invitrogen) were used for antibacterial and antifungal assays, respectively. Two-fold serial dilutions of peptides (0.09-50 μmol L^−1) and microorganisms (Serratia marcescens ATCC 4112, Enterobacter cloacae β-12, Micrococcus luteus A270, Bacillus megaterium ATCC 10778, Bacillus subtilis ATCC 6633, Candida albicans MDM8, and Candida tropicalis IOC 4560) were incubated at 37° C. for 18 h (for bacteria) or 24 h (for fungi), and microbial growth was assessed by absorbance measurements at 595 nm. Experiments were performed in three biological repeats.

[2] = test system: S. epidermidis ATCC 12228; experiment: Liquid growth inhibition assay, MIC; type: cell-based; conditions: 37° C., 18 h
[3] = test system: A. baumannii ATCC19606; experiment: NPN uptake assay, outer membrane permeabilization; type: cell-based; conditions: peptides at their MIC
Description: Method. Membrane permeabilization was assessed for two of the naturally occurring peptides (VmCT1 and temporin A) and two of the hybrids [VmCT1-temporin A (VT) and temporin A-VmCT1 (TV)] at their MIC by using the N-phenyl-1-naphthylamine (NPN) uptake assay as previously described^104, 105. Briefly, A. baumannii ATCC19606 cells were grown to an optical density at 600 nm (OD600) of 0.4, centrifuged (10,000 rpm at 4° C. to 10 minutes), washed, and resuspended in buffer (5 mmol L^−1 HEPES, 5 mmol L^−1 glucose, pH 7.4). Four μL of NPN solution (0.5 mmol L^−1; working concentration of 10 μmol L^−1, after dilutions) was added to 100 μL of the bacterial solution in 96-well plates. The background fluorescence was then determined at λex=350 nm and […]. The peptides resuspended in water (100 μL at a concentration of 1.2 μmol L^−1) were added to each 96-well plate. The fluorescence was determined as a function of time until no further increase in fluorescence was observed (45 min).

[4] = test system: S. marcescens ATCC 4112; experiment: Liquid growth inhibition assay, MIC; type: cell-based, Serratia marcescens; conditions: 37° C., 18 h
Description: as §1

[5] = test system: C. albicans MDM8; experiment: Liquid growth inhibition assay, MIC (antifungal); type: cell-based, Candida albicans; conditions: 37° C., 24 h
Description: as §1

[6] = test system: M. luteus A270; experiment: Liquid growth inhibition assay, MIC; type: cell-based, Micrococcus luteus; conditions: 37° C., 18 h
Description: as §1

[7] = test system: Plasmodium gallinaceum sporozoites; experiment: Antiplasmodial activity, fluorescence microscopy; type: cell-based; conditions: for P. gallinaceum (% sporozoites at 0.8 μmol L^−1): fluorescent (propidium iodide stained) sporozoites, 37° C., 1 h; for antiplasmodial activity: P. gallinaceum sporozoites, concentration range tested
Description: Method. The activity of the peptides against Plasmodium gallinaceum sporozoites was determined by fluorescence microscopy, as previously described by Silva et. al.^83. Briefly, 9,000 sporozoites were isolated from the glands of infected Aedes aegypti mosquitos and incubated with serially diluted peptides (ranging from 0.1 to 1.6 μmol L^−1) at 37° C. for 1 h. A PBS solution and the surfactant digitonin^84, 85 were used as negative and positive controls, respectively. Propidium iodide was used to stain dead cells. Assays were executed using fluorescence microscopy. Three biological repeats each with three different mosquito batches (n=9) were used.

[8] = test system: E. cloacae β-12; experiment: Liquid growth inhibition assay, MIC; type: cell-based, Enterobacter cloacae; conditions: 37° C., 18 h
Description: as §1

[9] = test system: P. aeruginosa PAO1; experiment: Broth microdilution MIC, ESKAPE pathogens; type: cell-based; conditions: LB, 37° C., 24 h
Description: (§2) Method. The minimal inhibitory concentration (MIC) against the ESKAPE pathogens was determined using the broth microdilution method^81, 82 in Luria-Bertani (LB) medium. The MIC value was defined as the lowest concentration of peptide at which no microbial growth was observed. A. baumannii ATCC19606, E. coli ATCC11775, E. coli AIC221, E. coli AIC222, K. pneumoniae ATCC13883, S. aureus ATCC12600 P. aeruginosa PAO1, and P. aeruginosa PA14 were incubated on agar plates, and after 24 h, three isolated colonies were inoculated to 5 mL of Luria-Bertani (LB) broth and maintained at 37° C. overnight with shaking. Peptides were then added to 96-well polystyrene microtiter plates at concentrations ranging from 0 to 128 μmol L^−1, and 5×10^5 CFU mL^−1 of each bacterium was inoculated in each well. The plates were incubated at 37° C. for 24 h. Bacterial growth was measured using a microplate reader at 610 nm. Three independent replicates were performed.

[10] = test system: E. coli ATCC11775; experiment: Broth microdilution MIC, ESKAPE pathogens; type: cell-based; conditions: LB, 37° C., 24 h
Description: as §2

[11] = test system: K. pneumoniae ATCC13883; experiment: Broth microdilution MIC, ESKAPE pathogens; type: cell-based; conditions: LB, 37° C., 24 h
Description: as §2

[12] = test system: P. aeruginosa PA14; experiment: Broth microdilution MIC, ESKAPE pathogens; type: cell-based; conditions: LB, 37° C., 24 h
Description: as §2

[13] = test system: E. coli AIC221; experiment: Broth microdilution MIC, ESKAPE pathogens; type: cell-based; conditions: LB, 37° C., 24 h
Description: as §2

[14] = test system: S. aureus ATCC12600; experiment: Broth microdilution MIC, ESKAPE pathogens; type: cell-based; conditions: LB, 37° C., 24 h
Description: as §2

[15] = test system: A. baumannii ATCC19606; experiment: Broth microdilution MIC, ESKAPE pathogens; type: cell-based; conditions: LB, 37° C., 24 h
Description: as §2

[16] = test system: E. coli AIC222; experiment: Broth microdilution MIC, ESKAPE pathogens; type: cell-based; conditions: LB, 37° C., 24 h
Description: as §2

[17] = test system: C. tropicalis IOC 4560; experiment: Liquid growth inhibition assay, MIC (antifungal); type: cell-based, Candida tropicalis; conditions: 37° C., 24 h
Description: as §1

[18] = test system: human erythrocytes; experiment: Hemolytic activity assay; type: cell-based; conditions: human erythrocytes, 1 h; for MHC: room temperature, concentration with approximately 0% of hemolytic activity
Description: Method. Assays against freshly collected human erythrocytes were performed following protocols described by Pedron et al. 62. Briefly, peptide aliquots at concentrations ranging from 0.1 to 100 μmol L−1 were incubated with a suspension of erythrocytes at room temperature for 1 h. The samples were then centrifuged, and the absorbance of the supernatant was measured at 405 nm. The MHC (maximal non-hemolytic concentration) was determined as the maximal concentration at which 100% of the erythrocytes were viable. The surfactant SDS and PBS buffer were used as positive88, 89 and negative controls, respectively. Sodium heparin was used as an anticoagulant when collecting human blood. Three biological repeats were performed.

Substance | MIC B. megaterium ATCC 10778 [1] | MIC S. epidermidis ATCC 12228 [2] | outer membrane permeabilization, NPN fluorescence [3] | MIC S. marcescens ATCC 4112 [4] | MIC C. albicans MDM8 [5] | MIC M. luteus A270 [6] | P. gallinaceum (% sporozoites at 0.8 μmol L^−1) [7] | antiplasmodial activity [7] | MIC E. cloacae β-12 [8] | MIC P. aeruginosa PAO1 [9] | MIC E. coli ATCC11775 [10] | MIC K. pneumoniae ATCC13883 [11] | MIC P. aeruginosa PA14 [12] | MIC E. coli AIC221 [13] | MIC S. aureus ATCC12600 [14] | MIC A. baumannii ATCC19606 [15] | MIC E. coli AIC222 [16] | MIC C. tropicalis IOC 4560 [17] | Hemolytic activity, concentration of peptide needed to kill 10% of red blood cells [18] | MHC [18]
FLPLLWRVASGVF-NH2 [VT, Phe-Leu-Pro-Leu-Leu-Trp-Arg-Val-Ala-Ser-Gly-Val-Phe] | 6.3 µM | >50 µM | did not lead to increased fluorescence compared to the control | 12.5 µM | 12.5 µM | 3.1 µM | 2% | did not exhibit significant antiplasmodial activity | >50 µM | 128 µM | 64 µM | 128 µM | 128 µM | 128 µM | 4 µM | 16 µM | 32 µM | 25 µM | 0.2 µmol/L | 0.2 µmol/L
FLGAIGNVLKSIL-NH2 [TV, Phe-Leu-Gly-Ala-Ile-Gly-Asn-Val-Leu-Lys-Ser-Ile-Leu] | 6.3 µM | >50 µM | increased fluorescence compared to the control | 6.3 µM | 25 µM | 6.3 µM | 83% | exhibited antiplasmodial activity | >50 µM | 128 µM | 32 µM | 16 µM | 128 µM | 16 µM | 16 µM | 16 µM | 8 µM | 3.1 µM | 0.2 µmol/L | 0.2 µmol/L
ILGAILNVLKSLG-NH2 [PV, Ile-Leu-Gly-Ala-Ile-Leu-Asn-Val-Leu-Lys-Ser-Leu-Gly] | 12.5 µM | >50 µM | – | 12.5 µM | 12.5 µM | 3.1 µM | 41% | – | >50 µM | – | 32 µM | 64 µM | 128 µM | 32 µM | 16 µM | 32 µM | 16 µM | 6.3 µM | 25 µmol/L | 25 µmol/L
FLGALWNVAKSVF-NH2 [VmCT1, Phe-Leu-Gly-Ala-Len-Trp-Asu-Val-Ala-Lys-Ser-Val-Phe, reference compound] | 1.6 µM | 3.1 µM | increased fluorescence compared to the control | 0.4 µM | 12.5 µM | 0.8 µM | 93% | – | >50 µM | 128 µM | 16 µM | 64 µM | 128 µM | 32 µM | 8 µM | 8 µM | 16 µM | 12.5 µM | – | 6.3 µmol/L
FLPLIGRVLSGIL-NH2 [Temporin A, Phe-Leu-Pro-Leu-Ile-Gly-Arg-Val-Leu-Ser-Gly-Ile-Leu, reference compound] | 6.3 µM | >50 µM | increased fluorescence compared to the control | 12.5 µM | 25 µM | 3.1 µM | 15% | no activity | >50 µM | 128 µM | 64 µM | 128 µM | 128 µM | 128 µM | 8 µM | 32 µM | 32 µM | 12.5 µM | 0.2 µmol/L | 0.2 µmol/L
